# Measurements: PubChem BioAssay AID1918936 (Molecular Pharmacology Branch, DTP, NCI, 2023)
# “And” between values parts separate entries of the source, which are not always exact repeats. Equal values may be shown once.
# Test system: 349418-098-R-PDC complex spheroid viability
# Assay: Anticancer human tumor 349418-098-R-PDC patient-derived lung adenocarcinoma cell line growth inhibition
# Settings: for viability, T/C: stronger effect = lower value
# Method in brief: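 Drug combinations with the LSD1 inhibitor iadademstat tested on tumor cells co-cultured as spheroids with endothelial cells and mesenchymal stem cells. Concentrations descended in half-log increments from clinical Cmax or 10 microM.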
# [1] = curve of first compound, second compound 0.1 µM
# [2] = curve of first compound, second compound 0.316 µM
# [3] = curve of first compound, second compound 1 µM
# [4] = curve of first compound, second compound 3.16 µM
# [5] = curve of first compound, second compound 10 µM
# [6] = second compound 0.1 µM, first compound 0.00949 µM
# [7] = second compound 0.1 µM, first compound 0.03 µM
# [8] = second compound 0.1 µM, first compound 0.0949 µM
# [9] = second compound 0.1 µM, first compound 0.3 µM
# [10] = second compound 0.1 µM, first compound 0.949 µM
# [11] = second compound 0.1 µM, first compound 3 µM
# [12] = second compound 0.316 µM, first compound 0.00949 µM
# [13] = second compound 0.316 µM, first compound 0.03 µM
# [14] = second compound 0.316 µM, first compound 0.0949 µM
# [15] = second compound 0.316 µM, first compound 0.3 µM
# [16] = second compound 0.316 µM, first compound 0.949 µM
# [17] = second compound 0.316 µM, first compound 3 µM
# [18] = second compound 1 µM, first compound 0.00949 µM
# [19] = second compound 1 µM, first compound 0.03 µM
# [20] = second compound 1 µM, first compound 0.0949 µM
# [21] = second compound 1 µM, first compound 0.3 µM
# [22] = second compound 1 µM, first compound 0.949 µM
# [23] = second compound 1 µM, first compound 3 µM
# [24] = second compound 3.16 µM, first compound 0.00949 µM
# [25] = second compound 3.16 µM, first compound 0.03 µM
# [26] = second compound 3.16 µM, first compound 0.0949 µM
# [27] = second compound 3.16 µM, first compound 0.3 µM
# [28] = second compound 3.16 µM, first compound 0.949 µM
# [29] = second compound 3.16 µM, first compound 3 µM
# [30] = second compound 10 µM, first compound 0.00949 µM
# [31] = second compound 10 µM, first compound 0.03 µM
# [32] = second compound 10 µM, first compound 0.0949 µM
# [33] = second compound 10 µM, first compound 0.3 µM
# [34] = second compound 10 µM, first compound 0.949 µM
# [35] = second compound 10 µM, first compound 3 µM
# 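Note: spheroids exposed to agents for seven days before readout.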
# 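Throughout, for viability, T/C: 100% = DMSO vehicle control wells.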
smiles,measurement,setting,value
CCN(c1cc(-c2ccc(CN3CCOCC3)cc2)cc(C(=O)NCc2c(C)cc(C)[nH]c2=O)c1C)C1CCOCC1 + NC1CC1c1ccc(-c2cccc(O)c2)cc1,IC50,[1],603 nM
same,IC50,[2],650 nM
same,IC50,[3],770 nM
same,IC50,[4],758 nM
same,IC50,[5],499 nM
same,"viability, T/C",[6],116%
same,"viability, T/C",[7],107%
same,"viability, T/C",[8],109%
same,"viability, T/C",[9],74%
same,"viability, T/C",[10],34.4%
same,"viability, T/C",[11],11.4%
same,"viability, T/C",[12],120%
same,"viability, T/C",[13],121%
same,"viability, T/C",[14],113%
same,"viability, T/C",[15],77%
same,"viability, T/C",[16],37.5%
same,"viability, T/C",[17],11.9%
same,"viability, T/C",[18],123%
same,"viability, T/C",[19],124%
same,"viability, T/C",[20],120%
same,"viability, T/C",[21],89.2%
same,"viability, T/C",[22],42%
same,"viability, T/C",[23],14%
same,"viability, T/C",[24],126%
same,"viability, T/C",[25],121%
same,"viability, T/C",[26],122%
same,"viability, T/C",[27],89.1%
same,"viability, T/C",[28],41.1%
same,"viability, T/C",[29],14.3%
same,"viability, T/C",[30],107%
same,"viability, T/C",[31],102%
same,"viability, T/C",[32],107%
same,"viability, T/C",[33],70.8%
same,"viability, T/C",[34],23.8%
same,"viability, T/C",[35],11.2%
NC1CCC(NC2CC2c2ccccc2)CC1 (stereo not drawn),"viability, T/C",compound 0.316 µM,106% (2×) and 102%
same,"viability, T/C",compound 3.16 µM,103% [middle of 25 runs]
same,IC50,"compound alone, run of 01/18/2022",> 10000 nM
CC1COCCN1c1cc(-c2ccnn2C)c2ccnc(-c3ccn[nH]3)c2n1 (stereo not drawn) + NC1CC1c1ccc(-c2cccc(O)c2)cc1,IC50,[1],< 3.16 nM
same,IC50,[2],< 3.16 nM
same,IC50,[3],< 3.16 nM
same,IC50,[4],< 3.16 nM
same,IC50,[5],< 3.16 nM
same,"viability, T/C","second compound 0.1 µM, first compound 0.00316 µM",27.6%
same,"viability, T/C","second compound 0.1 µM, first compound 0.01 µM",16.8%
same,"viability, T/C","second compound 0.1 µM, first compound 0.0316 µM",8.87%
same,"viability, T/C","second compound 0.1 µM, first compound 0.1 µM",6.42%
same,"viability, T/C","second compound 0.1 µM, first compound 0.316 µM",5.35%
same,"viability, T/C","second compound 0.1 µM, first compound 1 µM",4.21%
same,"viability, T/C","second compound 0.316 µM, first compound 0.00316 µM",25.8%
same,"viability, T/C","second compound 0.316 µM, first compound 0.01 µM",15.6%
same,"viability, T/C","second compound 0.316 µM, first compound 0.0316 µM",8.79%
same,"viability, T/C","second compound 0.316 µM, first compound 0.1 µM",6.08%
same,"viability, T/C","second compound 0.316 µM, first compound 0.316 µM",5.05%
same,"viability, T/C","second compound 0.316 µM, first compound 1 µM",4.22%
same,"viability, T/C","second compound 1 µM, first compound 0.00316 µM",23.5%
same,"viability, T/C","second compound 1 µM, first compound 0.01 µM",14.9%
same,"viability, T/C","second compound 1 µM, first compound 0.0316 µM",8.57%
same,"viability, T/C","second compound 1 µM, first compound 0.1 µM",6.23%
same,"viability, T/C","second compound 1 µM, first compound 0.316 µM",4.88%
same,"viability, T/C","second compound 1 µM, first compound 1 µM",4.83%
same,"viability, T/C","second compound 3.16 µM, first compound 0.00316 µM",22%
same,"viability, T/C","second compound 3.16 µM, first compound 0.01 µM",16%
same,"viability, T/C","second compound 3.16 µM, first compound 0.0316 µM",8.3%
same,"viability, T/C","second compound 3.16 µM, first compound 0.1 µM",5.96%
same,"viability, T/C","second compound 3.16 µM, first compound 0.316 µM",5.3%
same,"viability, T/C","second compound 3.16 µM, first compound 1 µM",4.55%
same,"viability, T/C","second compound 10 µM, first compound 0.00316 µM",16.9%
same,"viability, T/C","second compound 10 µM, first compound 0.01 µM",12.8%
same,"viability, T/C","second compound 10 µM, first compound 0.0316 µM",6.32%
same,"viability, T/C","second compound 10 µM, first compound 0.1 µM",5%
same,"viability, T/C","second compound 10 µM, first compound 0.316 µM",4.59%
same,"viability, T/C","second compound 10 µM, first compound 1 µM",3.83%
COc1cc(C2c3cc4c(cc3C(OC3OC5COC(C)OC5C(O)C3O)C3COC(=O)C23)OCO4)cc(OC)c1O (stereo not drawn) + NC1CC1c1ccc(-c2cccc(O)c2)cc1,IC50,[1],61.1 nM
same,IC50,[2],62.7 nM
same,IC50,[3],67.3 nM
same,IC50,[4],57.1 nM
same,IC50,[5],35 nM
same,"viability, T/C",[6],108%
same,"viability, T/C",[7],86.4%
same,"viability, T/C",[8],27.3%
same,"viability, T/C",[9],7.24%
same,"viability, T/C",[10],3.83%
same,"viability, T/C",[11],3.5%
same,"viability, T/C",[12],114%
same,"viability, T/C",[13],89.4%
same,"viability, T/C",[14],27.7%
same,"viability, T/C",[15],7.71%
same,"viability, T/C",[16],3.95%
same,"viability, T/C",[17],2.97%
same,"viability, T/C",[18],97.6%
same,"viability, T/C",[19],92.7%
same,"viability, T/C",[20],31.8%
same,"viability, T/C",[21],6.96%
same,"viability, T/C",[22],3.37%
same,"viability, T/C",[23],2.89%
same,"viability, T/C",[24],114%
same,"viability, T/C",[25],83.5%
same,"viability, T/C",[26],23.5%
same,"viability, T/C",[27],7.14%
same,"viability, T/C",[28],3.98%
same,"viability, T/C",[29],3.63%
same,"viability, T/C",[30],95.6%
same,"viability, T/C",[31],55.4%
same,"viability, T/C",[32],14.7%
same,"viability, T/C",[33],5.55%
same,"viability, T/C",[34],3.81%
same,"viability, T/C",[35],3.47%
